Among the test systems are DLD-1; DMS-114; DMS-273; HOP-18; KM-20L2; LXFL 529; M19-MEL; SNB-78; XF498.
Common to all, as to test: inhibition of tumour cell growth, NCI panel, 48 h

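Where inhibition never reached the appropriate level, the endpoint shown equals the highest concentration tested. Otherwise, values were interpolated linearly from a five-concentration, 48-hour dose response in 96-well plates. GI50 is the concentration that inhibits growth by half.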 Activity calls are given as the source filed them. No stated cut-off is given here; in the data, active = GI50 up to about 1.1 µM and inactive = higher.

On to `O=[N+]([O-])c1ccc(COc2cccc3cccnc23)cc1`, for which the GI50 in the experiment with DLD-1 was 13.9 µM (inactive); in the experiment with DMS-114, 2.19 µM (inactive); with DMS-273 it was 4.53 µM (inactive); with HOP-18, 31.5 µM (inactive); in the experiment on KM-20L2, 33.3 µM (inactive); with LXFL 529, 23.5 µM (inactive). For the same compound, the results for the GI50 in the experiment with M19-MEL, in the experiment with SNB-78 and in the experiment with XF498 were 15.1 µM (inactive), 38.2 µM (inactive) and 19.9 µM (inactive), respectively.

`N=C(Nc1nc(-c2ccccn2)cc2ccccc12)c1ccccn1`: the GI50 in the experiment on DLD-1 is 0.0019 µM (active); in the experiment with DMS-114 it was 0.00108 µM (active); in the experiment on DMS-273, 0.00512 µM (active); in the experiment with HOP-18, 0.301 µM (active); with LXFL 529, 0.00242 µM (active); in the experiment on M19-MEL, 0.232 µM (active). Also, the results for the GI50 in the experiment with SNB-78 and in the experiment on XF498 were 3.33 µM (inactive) and 0.00407 µM (active), respectively.

Consider `Nc1ncnc2c1ncn2C1CCC(CO)O1` (configuration not stated), for which the GI50 in the experiment on DLD-1 was > 100 µM (inactive); in the experiment with DMS-114, > 55.6 µM (inactive); in the experiment with DMS-273, > 100 µM (inactive); in the experiment on HOP-18 it was > 100 µM (inactive); in the experiment on KM-20L2, > 100 µM (inactive); in the experiment with M19-MEL, > 100 µM (inactive). Also, the GI50 in the experiment with SNB-78 was > 100 µM (inactive); in the experiment with XF498, > 90.8 µM (inactive).

For `Nc1nc(=O)[nH]c2c1cnn2C1CCCCO1` (configuration not stated), the GI50 was 62.7 µM (inactive) in the experiment with DLD-1; > 100 µM (inactive) with DMS-273; > 100 µM (inactive) with HOP-18; > 100 µM (inactive) with KM-20L2; > 100 µM (inactive) in the experiment with LXFL 529; > 100 µM (inactive) in the experiment on SNB-78. Besides, the GI50 in the experiment with XF498 is > 100 µM (inactive).

Turning to `O=C(/C=C/c1ccc([N+](=O)[O-])cc1)c1ccc(NCc2nc3ccccc3[nH]2)cc1`, the GI50 in the experiment with DLD-1 was 3.97 µM (inactive); in the experiment on DMS-114 it was 1.91 µM (inactive); with DMS-273 it was 3.05 µM (inactive); in the experiment on HOP-18 it was 16.4 µM (inactive); with KM-20L2, 3.98 µM (inactive); in the experiment on LXFL 529, 2.9 µM (inactive). The GI50 was 3.94 µM (inactive) with M19-MEL, 5.81 µM (inactive) in the experiment with SNB-78 and 6.17 µM (inactive) with XF498.

`CCC(C)CN1C(=O)NC(Cc2ccccc2)C1=O` (configuration not stated): the GI50 in the experiment with DLD-1 was > 100 µM (inactive); with DMS-114, > 100 µM (inactive); in the experiment with DMS-273 it was > 100 µM (inactive); in the experiment on HOP-18 it was 0.119 µM (active); in the experiment with KM-20L2 it was > 100 µM (inactive); in the experiment with LXFL 529, > 100 µM (inactive). Moreover, the GI50 in the experiment on M19-MEL, in the experiment with SNB-78 and in the experiment on XF498 was > 100 µM (inactive) throughout.

In the case of `C=C=CC(NC(=O)c1ccccc1)(C(=O)O)C(F)(F)F` (configuration not stated), the GI50 in the experiment with DLD-1, with DMS-114, with DMS-273, with HOP-18, with LXFL 529 and in the experiment on SNB-78 was > 100 µM (inactive) each time. In addition, the GI50 in the experiment on XF498 was > 100 µM (inactive).

For `COC(=O)[C@H]1N[C@@H](C(=O)OC)C23CCC[C@H]2CC[C@]1(C(OC)OC)C3`, the GI50 in the experiment on DLD-1, in the experiment on DMS-114, in the experiment with DMS-273, with HOP-18, with KM-20L2 and in the experiment with LXFL 529 was > 100 µM (inactive) throughout. Also, the GI50 in the experiment on M19-MEL, in the experiment with SNB-78 and with XF498 was > 100 µM (inactive) each time.

Take `O=c1c2cc3c(=O)n(CCc4ccccc4CO)c(=O)c3cc2c(=O)n1CCc1ccccc1CO`: the GI50 in the experiment on DLD-1, in the experiment on DMS-114, with DMS-273, with LXFL 529, with M19-MEL and with SNB-78 was > 100 µM (inactive) in each case. Besides, in the experiment on XF498, the GI50 was > 100 µM (inactive).

In the case of `C#CCC1(C(=O)OCC)C(=O)c2ccccc2N(C)C1=O` (configuration not stated), the GI50 in the experiment with DLD-1, in the experiment with DMS-114, with DMS-273, in the experiment on HOP-18, with KM-20L2 and in the experiment on LXFL 529 was > 100 µM (inactive) in each case. The GI50 was > 100 µM (inactive) with M19-MEL, > 100 µM (inactive) in the experiment with SNB-78 and 26.7 µM (inactive) in the experiment with XF498.

In the case of `Nc1nc(N)c2nc(-c3ccco3)cnc2n1`, the GI50 in the experiment on DLD-1 was > 100 µM (inactive); in the experiment on DMS-114 it was 38.8 µM (inactive); in the experiment on HOP-18, 27.6 µM (inactive); in the experiment on KM-20L2, 69.2 µM (inactive); in the experiment with LXFL 529, 64.1 µM (inactive); with M19-MEL, > 100 µM (inactive). The GI50 in the experiment on SNB-78 and in the experiment with XF498 was > 100 µM (inactive) throughout.

Regarding `C/C(CCn1[nH]c(=O)ccc1=O)=N\NC(=O)C(=O)NN`, the GI50 in the experiment on DLD-1, with DMS-273, in the experiment on HOP-18, in the experiment on KM-20L2, with LXFL 529 and in the experiment on M19-MEL was > 100 µM (inactive) in each case. The GI50 in the experiment with XF498 is > 100 µM (inactive).

Consider `O=C(O)[C@@H](NS(=O)(=O)c1ccc(F)cc1)c1ccccc1`, for which the GI50 in the experiment with DLD-1, in the experiment on DMS-114, in the experiment with DMS-273, in the experiment with HOP-18, with KM-20L2 and in the experiment with LXFL 529 was > 100 µM (inactive) throughout. Besides, the GI50 with M19-MEL, in the experiment with SNB-78 and in the experiment with XF498 was > 100 µM (inactive) in each case.

Consider `C=C(N=[N+]=[N-])c1cn(C2CC(O)C(CO)O2)c(=O)[nH]c1=O` (configuration not stated), for which the GI50 in the experiment on DLD-1, in the experiment with DMS-114, with DMS-273, in the experiment on HOP-18, in the experiment with KM-20L2 and with LXFL 529 was > 100 µM (inactive) throughout. For the same compound, the GI50 with M19-MEL, with SNB-78 and in the experiment with XF498 was > 100 µM (inactive) in each case.

As for `COc1ccc(Cc2c3cc(OC)c(OC)cc3cc[n+]2C)cc1`, the GI50 in the experiment on DLD-1 was > 18 µM (inactive); with DMS-114, 2.82 µM (inactive); in the experiment with DMS-273 it was 2.22 µM (inactive); in the experiment on HOP-18, > 27.9 µM (inactive); in the experiment with KM-20L2, 10.3 µM (inactive); in the experiment on LXFL 529, 3.18 µM (inactive). Further, the GI50 was 12.6 µM (inactive) in the experiment with M19-MEL, 58.1 µM (inactive) in the experiment with SNB-78 and 4.99 µM (inactive) in the experiment on XF498.

For `COC(=O)c1ccccc1NC(=O)C(=O)CC(=O)CC(c1ccccc1)c1c(O)c2ccccc2oc1=O` (configuration not stated), the GI50 in the experiment on DLD-1, in the experiment on DMS-114, in the experiment with KM-20L2 and with M19-MEL was > 100 µM (inactive) throughout.

Turning to `Cc1cccc(C(=O)c2cccc3ccccc23)c1C(=O)O`, the GI50 is > 100 µM (inactive) in the experiment with DLD-1; 3.24 µM (inactive) in the experiment on DMS-114; > 100 µM (inactive) with DMS-273; 50.9 µM (inactive) with HOP-18; > 100 µM (inactive) in the experiment on KM-20L2; > 100 µM (inactive) in the experiment on LXFL 529. Also, the GI50 in the experiment on M19-MEL, with SNB-78 and with XF498 was > 100 µM (inactive) each time.

For the compound `CC12C(=CC(=O)CC1SCCS(=O)(=O)O)C(C#N)=C(N)N2c1ccc(Cl)c(Cl)c1` (configuration not stated), the GI50 in the experiment with DLD-1, with DMS-114, in the experiment on DMS-273, in the experiment on KM-20L2, in the experiment with LXFL 529 and in the experiment on M19-MEL was > 100 µM (inactive) in each case. Moreover, in the experiment on SNB-78, the GI50 is > 100 µM (inactive).

Take `COc1cccc(/C=N/[N-]C(=S)Nc2ccccc2)c1[O-].O.[Zn+2]`: the GI50 is 29 µM (inactive) in the experiment on DLD-1; 15.4 µM (inactive) with DMS-114; > 100 µM (inactive) with HOP-18; 40.3 µM (inactive) in the experiment with KM-20L2; 68.5 µM (inactive) in the experiment on LXFL 529; 60 µM (inactive) in the experiment with M19-MEL. In addition, the GI50 is 40.1 µM (inactive) in the experiment on SNB-78 and 23.2 µM (inactive) in the experiment on XF498.

`COc1ccc2[nH]c3c(C)c4cc[n+](C)cc4c(C)c3c2c1`: the GI50 was 1.06 µM (active) in the experiment with DLD-1; 0.219 µM (active) in the experiment with DMS-114; 0.838 µM (active) in the experiment on DMS-273; 3.95 µM (inactive) with HOP-18; 3.3 µM (inactive) with KM-20L2; 0.661 µM (active) in the experiment on M19-MEL. The GI50 in the experiment on SNB-78 was 0.406 µM (active).

For the compound `COc1ccc(/C=C/c2cc(OC)c(OCc3ccccc3)c(OC)c2)cc1`, the GI50 is 45.6 µM (inactive) with DLD-1; 68.4 µM (inactive) in the experiment with DMS-114; 71.6 µM (inactive) in the experiment with DMS-273; > 100 µM (inactive) with KM-20L2; > 100 µM (inactive) in the experiment on LXFL 529; > 100 µM (inactive) in the experiment on M19-MEL. Besides, the GI50 with SNB-78 and with XF498 was > 100 µM (inactive) each time.

Values taken from ChEMBL document CHEMBL1201862, “PubChem BioAssay data set” (2004).
